{
  "source": "patent US10054581B1",
  "about": "“Inhibitors of notch signaling pathway and use thereof in treatment of cancers” (Ecole Polytechnique Federale de Lausanne (EPFL), priority 2011, dated 2018)",
  "key": {"[1]": {"tested_on": "Notch2-intracellular domain (N2-ICD)", "experiment": "N2-ICD mediated pathway activation, luciferase reporter", "format": "cell-based"}, "[2]": {"tested_on": "KOPTK1", "experiment": "Annexin V apoptosis, KOPTK1", "format": "cell-based, human", "conditions": "10 μM, 7 days", "protocol": "(§1) FIGS. 6A-6D show 6-(4-Tert-Butylphenoxy)Pyridin-3-Amine (I3) induces G0/G1 cell cycle arrest and apoptosis in human T cell acute lymphoblastic leukemia cell lines and human breast cancer cell line HCC1187. […] Percentage of Annexin V positive (apoptotic) cell population was measured using flow cytometry.\n(§2) To quantitate the percentage of apoptotic cells, AnnexinV and 7AAD staining was performed. Thymic cells were suspended in 300 μl of 1× AnnexinV binding buffer (BD Biosciences, San Diego, USA) and incubated with 10 μl of AnnexinV-Cy5 antibody and 10 μl of 7AAD (BD Biosciences, San Diego, USA). Samples were incubated for 15 minutes at room temperature. FACS was performed with in one hour of antibody staining.\n(§3) This 6-(4-Tert-Butylphenoxy)Pyridin-3-Amine (I3) mediated proliferative arrest could be due to induction of apoptosis or cell cycle arrest during different phases of cell cycle. […] Therefore to further elucidate the mechanisms responsible for 6-(4-Tert-Butylphenoxy)Pyridin-3-Amine (I3) mediated proliferative arrest cell cycle and apoptosis analyses were carried out. […] To investigate cell death, Annexin V staining was performed and proportion of apoptotic (AnnexinV positive) cell population was determined by flow cytometry analyses after 7 days of treatment."}, "[3]": {"tested_on": "HCC1187", "experiment": "Annexin V apoptosis, HCC1187", "format": "cell-based, human", "conditions": "10 μM, 7 days", "protocol": "as §1, §2, §3"}, "[4]": {"tested_on": "KOPTK1", "experiment": "Cell cycle analysis (Ki67 and Hoechst stain), KOPTK1", "format": "cell-based, human", "conditions": "10 μM", "protocol": "as §1\nIn addition to induction of apoptosis, the proliferative arrest observed in 6-(4-Tert-Butylphenoxy)Pyridin-3-Amine (I3) treated human leukemic cell lines and breast cancer cell line also appears to be due to cell cycle arrest in G0/G1 phase of the cell cycle. Leukemic cell lines (RPMI8402, KOPTK1 and TALL1) and breast cancer cell lines were treated with 6-(4-Tert-Butylphenoxy)Pyridin-3-Amine (I3) for 48 hours and cell cycle status was determined using Ki67 and Hoechst stain."}, "[5]": {"tested_on": "intestinal tissue (goblet cells)", "experiment": "Intestinal toxicity in mice (Alcian blue staining for goblet cells)", "format": "in vivo, mouse"}, "[6]": {"tested_on": "HPB ALL leukemic cells", "experiment": "HPB ALL xenotransplantation in NOD/SCID γc−/− mice", "format": "in vivo, human", "conditions": "25 mg/kg daily from around day 15, imaged day 27", "protocol": "FIGS. 8A-8B show 6-(4-Tert-Butylphenoxy)Pyridin-3-Amine (I3) treatment increases latency of leukemia development in mice. […] On day 15, leukemic cells were established in the bone marrow. Mice were treated with oil or 6-(4-Tert-Butylphenoxy)Pyridin-3-Amine (I3) for every day. Mice were imaged on day 27 using Caliper IVIS (Xenogen) live imaging system. Red and blue colour indicates the intensity of luciferase signal and correlates with the number of leukemic cells. […] NOD/SCID γc^−/− mice were transplanted with 5×10^5 RPMI 8402 (luciferase expressing) cells. Leukemia development was followed using Caliper IVIS (Xenogen) live imaging system. On day […], a daily treatment was started using oil (n=3) or 6-(4-Tert-Butylphenoxy)Pyridin-3-Amine (I3) (n=4). Animals were treated for 27 days (end point of the experiment).\nThe human leukemic cell lines RPMI 8402 and HPB ALL were transduced with a lentivirus containing luciferase gene constitutively expressed downstream of a CMV promoter. […] Mice were monitored for tumor development using Caliper IVIS (Xenogen) live imaging system. […]\nThis allowed Applicants to visualize and monitor the leukemia progression in the mice using the Caliper IVIS (Xenogen) live imaging detection system. […] Mice were monitored for leukemia development by detecting luciferase expressing leukemic cells. […]"}, "[7]": {"tested_on": "primary human TALL samples", "experiment": "Primary human TALL samples treated with I3", "format": "cell-based", "description": "To further investigate the Notch inhibitory effect of 6-(4-Tert-Butylphenoxy)Pyridin-3-Amine (I3) in a relevant pathological condition, primary human TALL samples were profiled for the activation of Notch signalling. An accumulation of active form of Notch (NICD) was used as a biomarker for pathway activation."}, "[8]": {"conditions": "primary human TALL with accumulation of NICD"}},
  "note": "“Also recorded” adds a separate entry of the source.",
  "data": [
    {"smiles": "CC(C)(C)c1ccc(Oc2ccc(N)cn2)cc1", "note": "[I3, 6-(4-Tert-Butylphenoxy)Pyridin-3-Amine]", "values": [
      {"measurement": "pathway activation by N2-ICD", "setting": "[1]", "result": "could also block pathway activation by Notch1-intracellular domain (NICD) and Notch2-intracellular domain (N2-ICD); also recorded: inhibits pathway activation via intracellular domains of Notch1 (NICD) and Notch2 (N2-ICD)"},
      {"measurement": "apoptosis (Annexin V positive cells)", "setting": "[2]", "result": "induces significant apoptosis"},
      {"measurement": "apoptosis (Annexin V positive cells)", "setting": "[3]", "result": "induces apoptosis"},
      {"measurement": "cell cycle status", "setting": "[4]; 48 hours", "result": "induces an arrest in the G0/G1 phase of the cell cycle"},
      {"measurement": "increase in cells arrested in G0/G1 phase of the cell cycle", "setting": "[4]; stated jointly for RPMI8402, KOPTK1 and TALL1", "result": "20-30%"},
      {"measurement": "intestinal architecture / goblet cell metaplasia", "setting": "[5]; C57B16 mice, 25 mg/kg i.p., 7 consecutive days, analysed day 8, 25 mg/kg", "result": "completely normal with intact architecture and no indication of goblet cell metaplasia; also recorded: did not perturb intestinal homeostasis and without any indication of goblet cell accumulation"},
      {"measurement": "goblet cell numbers and intestinal architecture", "setting": "[5]; NOD/SCID γc−/− mice with RPMI 8402 xenotransplant, treated for 27 days", "result": "did not reveal any abnormality in the goblet cell numbers and intestinal architecture"},
      {"measurement": "leukemia progression (luciferase live imaging)", "setting": "[6]", "result": "did not progress at the same rate as in the oil treated group"},
      {"measurement": "response to treatment", "setting": "[7]; primary human TALL samples without detectable levels of NICD", "result": "did not respond"},
      {"measurement": "NICD protein", "setting": "[7]; [8]", "result": "leads to a downregulation of this protein"},
      {"measurement": "proliferation", "setting": "[7]; [8]", "result": "correlates with a proliferative arrest"}
    ]}
  ]
}
